Measurements as given in PubChem BioAssay (NCI).
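Growth conditions: 96-well plates. Treatment: test compound, 48 hours, 5 concentrations. Analysis: linear interpolation between bracketing concentrations; unreached endpoints set to highest concentration. GI50 = concentration required for 50% inhibition of growth. TGI marks complete inhibition of growth.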

What was measured:
Experiment in all cases: DTP human tumour cell line panel, 48 h
[1] = test system: LOX IMVI melanoma
[2] = test system: COLO 205 colon
[3] = test system: UO-31 renal
[4] = test system: MALME-3M melanoma
[5] = test system: UACC-62 melanoma
[6] = test system: M14 melanoma
[7] = test system: MDA-MB-435
[8] = test system: SNB-19 CNS
[9] = test system: SK-OV-3 ovarian
[10] = test system: U251 CNS
[11] = test system: SF-295 CNS
[12] = test system: HOP-92 NSCLC
[13] = test system: UACC-257 melanoma
[14] = test system: T-47D breast
[15] = test system: NCI-H226 lung
[16] = test system: HS 578T breast
[17] = test system: RXF 393 renal
[18] = test system: NCI/ADR-RES ovarian
[19] = test system: SK-MEL-5 melanoma
[20] = test system: PC-3 prostate
[21] = test system: IGROV1 ovarian
[22] = test system: A549 NSCLC
[23] = test system: SNB-75 CNS
[24] = test system: RPMI-8226 leukemia
[25] = test system: OVCAR-8 ovarian
[26] = test system: K-562 leukemia
[27] = test system: HOP-62 NSCLC
[28] = test system: BT-549 breast
[29] = test system: EKVX NSCLC
[30] = test system: 786-0 renal
[31] = test system: HCC-2998 colon
[32] = test system: SF-268 CNS
[33] = test system: CAKI-1 renal
[34] = test system: HT29 colon
[35] = test system: SF-539 CNS
[36] = test system: MDA-MB-231 breast
[37] = test system: SN12C renal
[38] = test system: MCF7 breast
[39] = test system: OVCAR-4 ovarian
[40] = test system: CCRF-CEM leukemia
[41] = test system: NCI-H460 lung
[42] = test system: ACHN renal
[43] = test system: SK-MEL-2 melanoma
[44] = test system: SR leukemia
[45] = test system: DU-145 prostate
[46] = test system: SK-MEL-28 melanoma
[47] = test system: OVCAR-3 ovarian
[48] = test system: SW-620 colon
[49] = test system: OVCAR-5 ovarian
[50] = test system: HCT-116 colon
[51] = test system: KM12 colon
[52] = test system: HL-60(TB) leukemia
[53] = test system: TK-10 renal
[54] = test system: NCI-H522 lung
[55] = test system: NCI-H23 lung
[56] = test system: A498 renal
[57] = test system: MOLT-4 leukemia
[58] = test system: HCT-15 colon

Question: What does the source list for `Cc1ccc(/C=N\NC(=O)c2[nH]c3ccc(F)cc3c2-c2ccccc2)cc1`?
Answer: GI50 [1]: 0.0339 µM; TGI [1]: > 100 µM; GI50 [2]: 0.0186 µM; TGI [2]: 0.0343 µM; GI50 [3]: 0.0472 µM; TGI [3]: > 46 µM; GI50 [4]: 0.0572 µM; TGI [4]: > 80.9 µM; GI50 [5]: 0.0516 µM; TGI [5]: > 58.6 µM; GI50 [6]: 0.0275 µM; GI50 [7]: 0.0217 µM; TGI [7]: 0.0495 µM; GI50 [8]: 0.0493 µM; TGI [8]: > 100 µM; GI50 [9]: 0.0307 µM; TGI [9]: 2.19 µM; GI50 [10]: 0.0378 µM; TGI [10]: > 58.9 µM; GI50 [11]: 0.0266 µM; TGI [11]: 1.2 µM; GI50 [12]: 0.0363 µM; TGI [12]: 50.3 µM; GI50 [13]: 0.493 µM; TGI [13]: > 100 µM; GI50 [14]: 1.1 µM; TGI [14]: > 100 µM; GI50 [15]: 0.0321 µM; TGI [15]: > 100 µM; GI50 [16]: 0.0375 µM; GI50 [17]: 0.0305 µM; TGI [17]: 1.49 µM; GI50 [18]: 0.0238 µM; TGI [18]: 1.91 µM; GI50 [19]: 0.0224 µM; TGI [19]: 0.0559 µM; GI50 [20]: 0.0345 µM; TGI [20]: 20.6 µM; GI50 [21]: 0.0336 µM; TGI [21]: 10.7 µM; GI50 [22]: 0.0344 µM; TGI [22]: > 100 µM; GI50 [23]: 0.0382 µM; TGI [23]: 16.6 µM; GI50 [24]: 0.0395 µM; TGI [24]: > 37.2 µM; GI50 [25]: 0.0389 µM; TGI [25]: > 100 µM; GI50 [26]: 0.038 µM; TGI [26]: 15.5 µM; GI50 [27]: 0.0422 µM; TGI [27]: 5.88 µM; GI50 [28]: 0.034 µM; TGI [28]: 7.29 µM; GI50 [29]: 0.0691 µM; TGI [29]: > 100 µM; GI50 [30]: 0.0387 µM; TGI [30]: 23.2 µM; GI50 [31]: 0.0321 µM; TGI [31]: 16.5 µM; GI50 [32]: 0.23 µM; TGI [32]: 42.5 µM; GI50 [33]: 0.0344 µM; TGI [33]: 12.5 µM; GI50 [34]: 0.0291 µM; TGI [34]: 11.6 µM; GI50 [35]: 0.0297 µM; TGI [35]: 0.965 µM; GI50 [36]: 0.0283 µM; TGI [36]: 0.129 µM; GI50 [37]: 0.0436 µM; TGI [37]: > 100 µM; GI50 [38]: 0.0299 µM; TGI [38]: > 100 µM; GI50 [39]: 0.147 µM; TGI [39]: > 100 µM; GI50 [40]: 0.0275 µM; TGI [40]: > 100 µM; GI50 [41]: 0.0345 µM; TGI [41]: > 37.9 µM; GI50 [42]: 0.0538 µM; TGI [42]: > 100 µM; GI50 [43]: 0.0488 µM; TGI [43]: 24.5 µM; GI50 [44]: 0.0323 µM; TGI [44]: > 64.2 µM; GI50 [45]: 0.0251 µM; TGI [45]: 0.0622 µM; GI50 [46]: 1.15 µM; TGI [46]: > 100 µM; GI50 [47]: 0.0261 µM; TGI [47]: 0.0782 µM; GI50 [48]: 0.0428 µM; TGI [48]: > 100 µM; GI50 [49]: 0.0591 µM; TGI [49]: > 100 µM; GI50 [50]: 0.027 µM; TGI [50]: 0.855 µM; GI50 [51]: 0.0282 µM; TGI [51]: 0.898 µM; GI50 [52]: 0.0291 µM; TGI [52]: 0.121 µM; GI50 [53]: 0.0412 µM; TGI [53]: > 93.3 µM; GI50 [54]: 0.014 µM; TGI [54]: 0.569 µM; GI50 [55]: 0.0374 µM; TGI [55]: > 43.8 µM; GI50 [56]: 0.0387 µM; TGI [56]: 24.5 µM; GI50 [57]: 0.0421 µM; TGI [57]: > 39.5 µM; GI50 [58]: 0.0288 µM
